# Test results reported in PubChem BioAssay (NCI).
#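 How tested: cells in 96-well plates exposed to compound for 48 hours at five concentrations. Abbreviation: GI50, concentration required for 50% inhibition of growth. TGI is the concentration that stops growth completely.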
# Columns and labels:
# Test in all cases: growth of human tumour cells (NCI), 48 h
# [1] = test system: 786-0 renal
# [2] = test system: A498 renal
# [3] = test system: A549 NSCLC
# [4] = test system: ACHN renal
# [5] = test system: BT-549 breast
# [6] = test system: CAKI-1 renal
# [7] = test system: CCRF-CEM leukemia
# [8] = test system: COLO 205 colon
# [9] = test system: DU-145 prostate
# [10] = test system: EKVX NSCLC
# [11] = test system: HCC-2998 colon
# [12] = test system: HCT-116 colon
# [13] = test system: HCT-15 colon
# [14] = test system: HOP-62 NSCLC
# [15] = test system: HOP-92 NSCLC
# [16] = test system: HS 578T breast
# [17] = test system: HT29 colon
# [18] = test system: IGROV1 ovarian
# [19] = test system: K-562 leukemia
# [20] = test system: KM12 colon
# [21] = test system: LOX IMVI melanoma
# [22] = test system: M14 melanoma
# [23] = test system: MALME-3M melanoma
# [24] = test system: MCF7 breast
# [25] = test system: MDA-MB-231 breast
# [26] = test system: MDA-MB-435
# [27] = test system: MOLT-4 leukemia
# [28] = test system: NCI-H226 lung
# [29] = test system: NCI-H23 lung
# [30] = test system: NCI-H460 lung
# [31] = test system: NCI-H522 lung
# [32] = test system: NCI/ADR-RES ovarian
# [33] = test system: OVCAR-3 ovarian
# [34] = test system: OVCAR-4 ovarian
# [35] = test system: OVCAR-5 ovarian
# [36] = test system: OVCAR-8 ovarian
# [37] = test system: PC-3 prostate
# [38] = test system: RPMI-8226 leukemia
# [39] = test system: RXF 393 renal
# [40] = test system: SF-268 CNS
# [41] = test system: SF-295 CNS
# [42] = test system: SF-539 CNS
# [43] = test system: SK-MEL-2 melanoma
# [44] = test system: SK-MEL-28 melanoma
# [45] = test system: SK-MEL-5 melanoma
# [46] = test system: SK-OV-3 ovarian
# [47] = test system: SN12C renal
# [48] = test system: SNB-19 CNS
# [49] = test system: SNB-75 CNS
# [50] = test system: SR leukemia
# [51] = test system: SW-620 colon
# [52] = test system: T-47D breast
# [53] = test system: TK-10 renal
# [54] = test system: U251 CNS
# [55] = test system: UACC-62 melanoma
# [56] = test system: UO-31 renal
compound,measurement,setting,value
Nc1c(C(=O)c2ccccc2)sc2nc(-c3cccs3)ccc12,GI50,[1],725 nM
same,TGI,[1],7670 nM
same,GI50,[2],185 nM
same,TGI,[2],3910 nM
same,GI50,[3],492 nM
same,TGI,[3],4800 nM
same,GI50,[4],863 nM
same,TGI,[4],13300 nM
same,GI50,[5],332 nM
same,TGI,[5],11600 nM
same,GI50,[6],564 nM
same,TGI,[6],20100 nM
same,GI50,[7],524 nM
same,TGI,[7],> 100000 nM
same,GI50,[8],426 nM
same,TGI,[8],4650 nM
same,GI50,[9],299 nM
same,TGI,[9],10000 nM
same,GI50,[10],285 nM
same,TGI,[10],17500 nM
same,GI50,[11],468 nM
same,TGI,[11],4250 nM
same,GI50,[12],53.3 nM
same,TGI,[12],1960 nM
same,GI50,[13],55.2 nM
same,TGI,[13],10400 nM
same,GI50,[14],276 nM
same,TGI,[14],17800 nM
same,GI50,[15],486 nM
same,TGI,[15],7310 nM
same,GI50,[16],474 nM
same,TGI,[16],12700 nM
same,GI50,[17],365 nM
same,TGI,[17],3300 nM
same,GI50,[18],1210 nM
same,TGI,[18],18800 nM
same,GI50,[19],46.7 nM
same,TGI,[19],20500 nM
same,GI50,[20],103 nM
same,TGI,[20],5600 nM
same,GI50,[21],378 nM
same,TGI,[21],15300 nM
same,GI50,[22],92.4 nM
same,TGI,[22],13300 nM
same,GI50,[23],1190 nM
same,TGI,[23],12600 nM
same,GI50,[24],87.8 nM
same,TGI,[24],4600 nM
same,GI50,[25],1230 nM
same,TGI,[25],5700 nM
same,GI50,[26],27 nM
same,TGI,[26],1030 nM
same,GI50,[27],50.4 nM
same,TGI,[27],1120 nM
same,GI50,[28],2110 nM
same,TGI,[28],12500 nM
same,GI50,[29],331 nM
same,TGI,[29],10100 nM
same,GI50,[30],283 nM
same,TGI,[30],2560 nM
same,GI50,[31],17.8 nM
same,TGI,[31],56.7 nM
same,GI50,[32],53.7 nM
same,TGI,[32],1810 nM
same,GI50,[33],46.8 nM
same,TGI,[33],1050 nM
same,GI50,[34],902 nM
same,TGI,[34],6720 nM
same,GI50,[35],1800 nM
same,TGI,[35],14500 nM
same,GI50,[36],453 nM
same,TGI,[36],> 100000 nM
same,GI50,[37],176 nM
same,TGI,[37],10100 nM
same,GI50,[38],513 nM
same,TGI,[38],17600 nM
same,GI50,[39],317 nM
same,TGI,[39],1630 nM
same,GI50,[40],664 nM
same,TGI,[40],15500 nM
same,GI50,[41],171 nM
same,TGI,[41],1710 nM
same,GI50,[42],250 nM
same,TGI,[42],1240 nM
same,GI50,[43],252 nM
same,TGI,[43],17800 nM
same,GI50,[44],1490 nM
same,TGI,[44],> 100000 nM
same,GI50,[45],292 nM
same,TGI,[45],3130 nM
same,GI50,[46],389 nM
same,TGI,[46],18400 nM
same,GI50,[47],692 nM
same,TGI,[47],27400 nM
same,GI50,[48],432 nM
same,TGI,[48],10300 nM
same,GI50,[49],187 nM
same,TGI,[49],1420 nM
same,GI50,[50],66.8 nM
same,TGI,[50],4160 nM
same,GI50,[51],73.4 nM
same,TGI,[51],11100 nM
same,GI50,[52],335 nM
same,TGI,[52],12200 nM
same,GI50,[53],414 nM
same,TGI,[53],5790 nM
same,GI50,[54],281 nM
same,TGI,[54],14100 nM
same,GI50,[55],78.8 nM
same,TGI,[55],10400 nM
same,GI50,[56],1130 nM
same,TGI,[56],15200 nM
